According to ChEMBL document CHEMBL6115042, “Hydroquinazoline Derivatives as Novel Natriuretic Peptide Receptor 1 (NPR1) Activators” (ACS Med Chem Lett, 2025):

How the values were obtained:
[1] = Activation of monkey NPR1 expressed in CHO-K1 cells assessed as increase in cGMP production measured after 30 mins by HTRF assay; assay type: cell-based; settings: Macaca mulatta, CHO-K1, 0.5 h
[2] = target: T1, Atrial natriuretic peptide receptor 1 (Homo sapiens, UniProt P16066); assay: Activation of human NPR1 expressed in CHO-K1 cells assessed as increase in cGMP production measured after 30 mins by HTRF assay; assay type: cell-based
T1 sequence (P16066 whole entry): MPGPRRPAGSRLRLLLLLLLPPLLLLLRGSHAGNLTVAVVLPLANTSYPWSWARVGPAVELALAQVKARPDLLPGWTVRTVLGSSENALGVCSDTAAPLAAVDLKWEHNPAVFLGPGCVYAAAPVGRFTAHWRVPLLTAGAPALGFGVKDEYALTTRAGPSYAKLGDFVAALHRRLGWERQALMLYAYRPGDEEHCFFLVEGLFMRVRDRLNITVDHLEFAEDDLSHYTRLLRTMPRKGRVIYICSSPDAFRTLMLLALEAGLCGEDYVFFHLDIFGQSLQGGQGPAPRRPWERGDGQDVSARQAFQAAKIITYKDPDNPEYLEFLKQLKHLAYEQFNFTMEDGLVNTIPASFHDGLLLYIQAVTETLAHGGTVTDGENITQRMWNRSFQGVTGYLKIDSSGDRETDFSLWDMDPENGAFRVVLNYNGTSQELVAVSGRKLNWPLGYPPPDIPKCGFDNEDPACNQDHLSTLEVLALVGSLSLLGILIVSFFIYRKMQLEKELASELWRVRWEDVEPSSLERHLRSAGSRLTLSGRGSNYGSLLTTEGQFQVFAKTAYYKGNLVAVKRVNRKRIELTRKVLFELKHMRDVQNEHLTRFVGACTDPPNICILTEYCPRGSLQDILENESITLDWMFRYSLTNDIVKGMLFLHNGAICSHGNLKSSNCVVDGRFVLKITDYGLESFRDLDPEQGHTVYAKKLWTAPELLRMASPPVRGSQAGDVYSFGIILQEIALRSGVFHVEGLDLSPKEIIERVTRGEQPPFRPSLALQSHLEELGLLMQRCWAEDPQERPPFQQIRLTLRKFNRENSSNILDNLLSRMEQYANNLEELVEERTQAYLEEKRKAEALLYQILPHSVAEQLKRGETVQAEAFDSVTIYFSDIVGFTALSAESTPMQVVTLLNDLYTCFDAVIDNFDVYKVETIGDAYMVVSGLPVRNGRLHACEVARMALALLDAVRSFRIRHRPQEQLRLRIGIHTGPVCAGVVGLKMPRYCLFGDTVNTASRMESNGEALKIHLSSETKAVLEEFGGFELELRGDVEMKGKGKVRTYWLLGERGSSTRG

| Structure (SMILES) | AC50 [1] [µM] | AC50 [2] [µM] |
| --- | --- | --- |
| CC[C@@H](N(C)c1nc2c(c(N[C@@H](CN3CCCCCC3)c3cnn(C)c3)n1)C[C@H](c1cccc(F)c1)CC2)C12CC(C(=O)O)(C1)C2 | 0.01 |  |
| CC[C@H]([C@H]1CC[C@H](C(=O)O)CC1)N(C)c1nc2c(c(N[C@@H](CN3C4CCCC3CC4)c3ccn(C)n3)n1)C[C@H](c1cccc(F)c1)CC2 | 0.272 |  |
| CC[C@@H](Nc1nc2c(c(N[C@@H](CN3CCC[C@H](C)C3)c3cnn(C)c3)n1)C[C@](C)(c1cccc(F)c1)CC2)C1CCC(C(=O)O)CC1 (some centres undefined) | 0.044 | 0.042 |
| CC[C@@H](Nc1nc2c(c(N[C@@H](CN3CCC[C@H](C)C3)c3cnn(C)c3)n1)C[C@](C)(c1ccc(F)cc1)CC2)C1CCC(C(=O)O)CC1 (some centres undefined) | 0.068 | 0.072 |
| CC[C@@H](Nc1nc2c(c(N[C@@H](CN3CCCCCC3)c3cnn(C)c3)n1)C[C@H](c1cccc(F)c1)CC2)C1CCC(C(=O)O)CC1 (some centres undefined) | 0.045 | 0.066 |
| CC[C@@H](Nc1nc2c(c(N[C@@H](CN3C4CCCC3CC4)c3ccccc3)n1)C[C@H](c1ccccc1)CC2)[C@H]1CC[C@H](C(=O)O)CC1 | 0.138 |  |
